Laboratory results as given in publication PMC6688997 (Nature Communications, 2019).

Key:
Assay in all cases: Kinase assay, ATP Km
Assay type in all cases: biochemical
NuaK2 = NuaK2 (Homo sapiens, UniProt Q9H093)
ROCK2 = ROCK2 (Homo sapiens, UniProt O75116)
BRK = target: T1, BRK (Homo sapiens, UniProt Q13882)
T1 construct: purchased Carna Biosciences

PKCα = PKCα (Homo sapiens, UniProt P17252)
MNK2 = target: T2, MNK2 (Homo sapiens, UniProt Q9HBH9)
T2 construct: purchased Carna Biosciences

SGK = target: T3, SGK (Homo sapiens, UniProt O00141)
T3 construct: purchased Carna Biosciences
T3 sequence (O00141 whole entry): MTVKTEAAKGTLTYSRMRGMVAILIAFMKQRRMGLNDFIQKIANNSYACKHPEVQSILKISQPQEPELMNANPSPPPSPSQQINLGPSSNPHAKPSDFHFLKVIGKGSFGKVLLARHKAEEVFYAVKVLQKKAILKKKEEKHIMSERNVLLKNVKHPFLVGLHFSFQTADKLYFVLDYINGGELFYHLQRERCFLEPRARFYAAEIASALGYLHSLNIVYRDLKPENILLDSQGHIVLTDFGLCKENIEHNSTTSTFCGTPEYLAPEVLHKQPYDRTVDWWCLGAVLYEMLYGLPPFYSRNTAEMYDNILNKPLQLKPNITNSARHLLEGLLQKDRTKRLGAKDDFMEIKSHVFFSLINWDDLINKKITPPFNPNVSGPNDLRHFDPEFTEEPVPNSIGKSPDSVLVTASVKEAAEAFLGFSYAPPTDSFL

IKKβ = target: T4, IKKβ (Homo sapiens, UniProt O14920)
T4 construct: purchased Carna Biosciences
T4 sequence (O14920 whole entry): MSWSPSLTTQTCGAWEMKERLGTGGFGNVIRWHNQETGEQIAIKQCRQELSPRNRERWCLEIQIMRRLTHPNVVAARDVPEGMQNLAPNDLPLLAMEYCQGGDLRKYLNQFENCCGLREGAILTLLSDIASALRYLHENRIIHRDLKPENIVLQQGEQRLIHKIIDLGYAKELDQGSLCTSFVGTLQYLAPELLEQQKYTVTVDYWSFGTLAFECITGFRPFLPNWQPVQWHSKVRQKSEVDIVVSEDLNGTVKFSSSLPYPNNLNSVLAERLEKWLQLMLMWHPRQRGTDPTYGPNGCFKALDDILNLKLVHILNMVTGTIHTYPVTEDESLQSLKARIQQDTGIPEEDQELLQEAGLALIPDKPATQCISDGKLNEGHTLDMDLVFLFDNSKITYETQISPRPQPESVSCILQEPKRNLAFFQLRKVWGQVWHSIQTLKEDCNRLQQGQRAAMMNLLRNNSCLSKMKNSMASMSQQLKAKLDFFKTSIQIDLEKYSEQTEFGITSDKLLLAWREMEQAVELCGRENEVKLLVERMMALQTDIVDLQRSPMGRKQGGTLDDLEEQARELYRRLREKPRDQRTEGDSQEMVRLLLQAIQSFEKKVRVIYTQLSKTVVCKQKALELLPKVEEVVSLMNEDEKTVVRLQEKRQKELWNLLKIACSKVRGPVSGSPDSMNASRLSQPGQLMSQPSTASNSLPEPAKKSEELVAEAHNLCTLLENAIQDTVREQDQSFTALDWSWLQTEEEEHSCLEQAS

NEK7 = NEK7 (Homo sapiens, UniProt Q8TDX7)
NEK7, sequence (Q8TDX7 whole entry): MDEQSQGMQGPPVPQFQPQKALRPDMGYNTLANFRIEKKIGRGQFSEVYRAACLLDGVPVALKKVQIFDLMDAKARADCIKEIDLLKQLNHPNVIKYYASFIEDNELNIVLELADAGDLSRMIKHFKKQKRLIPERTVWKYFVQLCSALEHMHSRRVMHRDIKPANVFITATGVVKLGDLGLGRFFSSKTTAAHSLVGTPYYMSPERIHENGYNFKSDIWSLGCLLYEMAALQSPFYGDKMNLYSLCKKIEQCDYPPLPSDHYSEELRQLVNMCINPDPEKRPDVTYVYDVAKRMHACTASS

ROCK2, sequence (O75116 whole entry): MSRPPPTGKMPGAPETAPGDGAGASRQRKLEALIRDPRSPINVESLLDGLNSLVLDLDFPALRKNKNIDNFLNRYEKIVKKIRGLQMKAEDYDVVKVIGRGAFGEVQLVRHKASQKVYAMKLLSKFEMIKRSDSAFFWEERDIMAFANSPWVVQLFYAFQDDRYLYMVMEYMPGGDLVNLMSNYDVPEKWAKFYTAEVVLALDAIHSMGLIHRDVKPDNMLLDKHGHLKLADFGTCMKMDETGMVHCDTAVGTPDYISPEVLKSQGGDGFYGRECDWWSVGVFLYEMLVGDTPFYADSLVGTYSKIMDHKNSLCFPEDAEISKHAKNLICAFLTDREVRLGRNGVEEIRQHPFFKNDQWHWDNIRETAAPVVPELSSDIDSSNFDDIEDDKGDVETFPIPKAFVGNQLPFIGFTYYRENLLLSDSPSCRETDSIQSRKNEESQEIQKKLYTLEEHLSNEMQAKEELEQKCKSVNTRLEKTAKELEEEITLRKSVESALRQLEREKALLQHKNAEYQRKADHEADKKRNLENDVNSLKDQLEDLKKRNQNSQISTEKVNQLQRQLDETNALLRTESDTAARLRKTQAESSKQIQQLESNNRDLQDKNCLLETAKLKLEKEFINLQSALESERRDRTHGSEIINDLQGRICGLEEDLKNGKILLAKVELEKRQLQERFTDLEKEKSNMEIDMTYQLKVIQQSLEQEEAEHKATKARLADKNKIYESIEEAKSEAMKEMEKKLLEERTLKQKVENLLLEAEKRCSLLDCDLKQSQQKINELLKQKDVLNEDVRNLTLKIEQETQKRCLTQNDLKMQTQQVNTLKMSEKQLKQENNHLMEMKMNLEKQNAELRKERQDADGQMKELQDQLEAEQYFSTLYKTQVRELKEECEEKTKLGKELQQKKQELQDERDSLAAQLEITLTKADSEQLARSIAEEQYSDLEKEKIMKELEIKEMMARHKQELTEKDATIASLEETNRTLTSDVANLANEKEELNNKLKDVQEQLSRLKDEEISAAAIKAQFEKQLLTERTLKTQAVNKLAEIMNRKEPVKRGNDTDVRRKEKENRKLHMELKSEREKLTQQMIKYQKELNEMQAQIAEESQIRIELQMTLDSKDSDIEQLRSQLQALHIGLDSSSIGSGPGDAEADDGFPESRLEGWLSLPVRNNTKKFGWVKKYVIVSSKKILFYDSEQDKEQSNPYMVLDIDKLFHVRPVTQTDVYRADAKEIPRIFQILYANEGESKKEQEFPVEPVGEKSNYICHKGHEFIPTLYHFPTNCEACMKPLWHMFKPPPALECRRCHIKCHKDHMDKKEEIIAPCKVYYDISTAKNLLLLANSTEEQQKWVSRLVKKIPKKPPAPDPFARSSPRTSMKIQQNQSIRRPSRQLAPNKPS
T1 sequence (Q13882 whole entry): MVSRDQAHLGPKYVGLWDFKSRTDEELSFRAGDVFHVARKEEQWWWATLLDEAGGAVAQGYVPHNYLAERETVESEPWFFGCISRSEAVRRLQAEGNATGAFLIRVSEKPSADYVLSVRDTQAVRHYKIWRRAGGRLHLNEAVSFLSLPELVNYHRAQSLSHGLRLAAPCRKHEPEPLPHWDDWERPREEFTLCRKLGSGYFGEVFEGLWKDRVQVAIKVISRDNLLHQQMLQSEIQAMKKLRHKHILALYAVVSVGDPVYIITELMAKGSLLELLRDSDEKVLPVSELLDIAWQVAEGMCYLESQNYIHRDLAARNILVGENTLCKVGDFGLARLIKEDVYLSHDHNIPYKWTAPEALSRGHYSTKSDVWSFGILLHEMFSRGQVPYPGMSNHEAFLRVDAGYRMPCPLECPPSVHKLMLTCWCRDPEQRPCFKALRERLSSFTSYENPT
T2 sequence (Q9HBH9 whole entry): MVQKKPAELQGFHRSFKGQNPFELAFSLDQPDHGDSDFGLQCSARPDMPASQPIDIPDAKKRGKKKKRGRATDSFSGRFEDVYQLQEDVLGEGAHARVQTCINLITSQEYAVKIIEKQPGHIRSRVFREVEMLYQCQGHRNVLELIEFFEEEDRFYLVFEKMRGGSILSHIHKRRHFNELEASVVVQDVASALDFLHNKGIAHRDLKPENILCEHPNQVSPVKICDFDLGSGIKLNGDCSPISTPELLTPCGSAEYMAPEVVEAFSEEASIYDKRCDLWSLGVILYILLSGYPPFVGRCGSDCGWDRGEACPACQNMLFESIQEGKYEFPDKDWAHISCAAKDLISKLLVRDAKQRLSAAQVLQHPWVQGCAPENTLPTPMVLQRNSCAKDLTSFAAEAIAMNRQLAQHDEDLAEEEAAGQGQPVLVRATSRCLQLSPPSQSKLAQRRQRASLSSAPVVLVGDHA

C[C@@H](N)COc1ccc(-c2cnc3ccc(N[C@H](C)c4cccc(F)c4)nn23)cc1.O=C(O)CCCCC(=O)O [DS-6051b]
inhibition at 0.04 µM (NuaK2): 75.3% | inhibition at 0.04 µM (ROCK2): 45.6% | inhibition at 0.04 µM (BRK): 31.7% | inhibition at 0.04 µM (PKCα): 31.7% | inhibition at 0.04 µM (MNK2): 4.2% | inhibition at 0.04 µM (SGK): 2.7% | inhibition at 0.04 µM (IKKβ): -0.0613% | inhibition at 0.04 µM (NEK7): -0.257%
